# Assay results published in US9637491B2, “Pyrazolo[4,3-D]pyrimidines as kinase inhibitors” (Origenis GmbH, priority 2012, dated 2017).
# Biological target: T1, SYK kinase (Homo sapiens, UniProt P43405)
# T1 construct: purchased Invitrogen, Carlsbad
# Experiment: SYK assay (OMNIA Kinase Assay, Invitrogen)
# Format: biochemical
# Conditions: SYK Activities; 1 mM ATP, 10 μM Omnia Peptide Substrate Tyr 7, 30° C.
# Method in brief: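 SYK was added last to start phosphorylation of a chelation-enhanced SOX peptide substrate (10 μM) in the presence of 1 mM ATP and 0.2 mM DTT at 30° C. Kinetic readings at λex 360/λem 485 nm over 30 min gave velocities, fitted sigmoidally against compound concentration to give IC50.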
row,SMILES,IC50
1,"FCCn1cc(Nc2nc(C3CCC3)nc3cn[nH]c23)cn1 [Example 363, 5-cyclobutyl-N-(1-(2-fluoroethyl)-1H-pyrazol-4-yl)-1H-pyrazolo[4,3-d]pyrimidin-7-amine]",0.01 to 0.1 µM
2,"Clc1c(Nc2nc(C3CCC3)nc3cn[nH]c23)cnn1C1CCNCC1 [Example 364, N-(5-chloro-1-(piperidin-4-yl)-1H-pyrazol-4-yl)-5-cyclobutyl-1H-pyrazolo[4,3-d]pyrimidin-7-amine]",0.1 to 1 µM
3,"FCCn1cc(Nc2nc(-c3ccco3)nc3cn[nH]c23)cn1 [Example 367, N-(1-(2-fluoroethyl)-1H-pyrazol-4-yl)-5-(furan-2-yl)-1H-pyrazolo[4,3-d]pyrimidin-7-amine]",0.01 to 0.1 µM
4,"CC(C)(O)Cn1cc(Nc2nc(-c3ccco3)nc3cn[nH]c23)cn1 [Example 369, 1-(4-((5-(furan-2-yl)-1H-pyrazolo[4,3-d]pyrimidin-7-yl)amino)-1H-pyrazol-1-yl)-2-methylpropan-2-ol]",0.1 to 1 µM
5,"FC(F)(F)Cn1cc(Nc2nc(C3CC3)nc3cn[nH]c23)cn1 [Example 374, 5-cyclopropyl-N-(1-(2,2,2-trifluoroethyl)-1H-pyrazol-4-yl)-1H-pyrazolo[4,3-d]pyrimidin-7-amine]",0.01 to 0.1 µM
6,"FC(F)(F)Cn1cc(Nc2nc(-c3ccoc3)nc3cn[nH]c23)cn1 [Example 375, 5-(furan-3-yl)-N-(1-(2,2,2-trifluoroethyl)-1H-pyrazol-4-yl)-1H-pyrazolo[4,3-d]pyrimidin-7-amine]",0.1 to 1 µM
7,"FC(F)(F)Cn1cc(Nc2nc(-c3ccco3)nc3cn[nH]c23)cn1 [Example 377, 5-(furan-2-yl)-N-(1-(2,2,2-trifluoroethyl)-1H-pyrazol-4-yl)-1H-pyrazolo[4,3-d]pyrimidin-7-amine]",0.01 to 0.1 µM
8,"CC(C)Cn1cc(-c2nc(Nc3ccc(N4CCOCC4)cc3)c3[nH]ncc3n2)cn1 [Example 383, 5-(1-isobutyl-1H-pyrazol-4-yl)-N-(4-morpholinophenyl)-1H-pyrazolo[4,3-d]pyrimidin-7-amine]",0.1 to 1 µM
9,"CCCc1nc(Nc2ccc(N3CCOCC3)cc2)c2[nH]ncc2n1 [Example 386, N-(4-morpholinophenyl)-5-propyl-1H-pyrazolo[4,3-d]pyrimidin-7-amine]",0.1 to 1 µM
10,"COc1ccc(Nc2nc(C3CCCCCC3)nc3cn[nH]c23)cc1OC [Example 388, 5-cycloheptyl-N-(3,4-dimethoxyphenyl)-1H-pyrazolo[4,3-d]pyrimidin-7-amine]",0.1 to 1 µM
11,"COCCn1cc(-c2nc(Nc3ccc(N4CCOCC4)cc3)c3[nH]ncc3n2)cn1 [Example 393, 5-(1-(2-methoxyethyl)-1H-pyrazol-4-yl)-N-(4-morpholinophenyl)-1H-pyrazolo[4,3-d]pyrimidin-7-amine]",0.1 to 1 µM
12,"c1cc(N2CCOCC2)ccc1Nc1nc(-c2cn[nH]c2)nc2cn[nH]c12 [Example 394, N-(4-morpholinophenyl)-5-(1H-pyrazol-4-yl)-1H-pyrazolo[4,3-d]pyrimidin-7-amine]",0.01 to 0.1 µM
13,"COCCn1ncc(Nc2nc(-c3ccco3)nc3cn[nH]c23)c1F [Example 403, N-(5-fluoro-1-(2-methoxyethyl)-1H-pyrazol-4-yl)-5-(furan-2-yl)-1H-pyrazolo[4,3-d]pyrimidin-7-amine]",0.1 to 1 µM
14,"COCCn1ncc(Nc2nc(-c3ccco3)nc3cn[nH]c23)c1N(C)C [Example 404, N4-(5-(furan-2-yl)-1H-pyrazolo[4,3-d]pyrimidin-7-yl)-1-(2-methoxyethyl)-N5,N5-dimethyl-1H-pyrazole-4,5-diamine]",0.1 to 1 µM
15,"COc1cccc(-c2nc(Nc3cnn(C4CC4)c3)c3[nH]ncc3n2)c1 [Example 406, N-(1-cyclopropyl-1H-pyrazol-4-yl)-5-(3-methoxyphenyl)-1H-pyrazolo[4,3-d]pyrimidin-7-amine]",0.1 to 1 µM
16,"COc1cccc(-c2nc(Nc3cnn(C4CCN(C(C)(C)C)CC4)c3)c3[nH]ncc3n2)c1 [Example 407, N-(1-(1-(tert-butyl)piperidin-4-yl)-1H-pyrazol-4-yl)-5-(3-methoxyphenyl)-1H-pyrazolo[4,3-d]pyrimidin-7-amine]",0.01 to 0.1 µM
17,"COCCCn1cc(Nc2nc(-c3cccc(OC)c3)nc3cn[nH]c23)cn1 [Example 408, 5-(3-methoxyphenyl)-N-(1-(3-methoxypropyl)-1H-pyrazol-4-yl)-1H-pyrazolo[4,3-d]pyrimidin-7-amine]",0.01 to 0.1 µM
18,"COc1cccc(-c2nc(Nc3cnn(C4CCOCC4)c3)c3[nH]ncc3n2)c1 [Example 409, 5-(3-methoxyphenyl)-N-(1-(tetrahydro-2H-pyran-4-yl)-1H-pyrazol-4-yl)-1H-pyrazolo[4,3-d]pyrimidin-7-amine]",0.01 to 0.1 µM
19,"c1ccc2sc(-c3nc(Nc4cnn(C5CC5)c4)c4[nH]ncc4n3)nc2c1 [Example 410, 5-(benzo[d]thiazol-2-yl)-N-(1-cyclopropyl-1H-pyrazol-4-yl)-1H-pyrazolo[4,3-d]pyrimidin-7-amine]",< 0.01 µM

row,SMILES,IC50
1,"CC(C)(C)N1CCC(n2cc(Nc3nc(-c4nc5ccccc5s4)nc4cn[nH]c34)cn2)CC1 [Example 411, 5-(benzo[d]thiazol-2-yl)-N-(1-(1-(tert-butyl)piperidin-4-yl)-1H-pyrazol-4-yl)-1H-pyrazolo[4,3-d]pyrimidin-7-amine]",< 0.01 µM
2,"COCCCn1cc(Nc2nc(-c3nc4ccccc4s3)nc3cn[nH]c23)cn1 [Example 412, 5-(benzo[d]thiazol-2-yl)-N-(1-(3-methoxypropyl)-1H-pyrazol-4-yl)-1H-pyrazolo[4,3-d]pyrimidin-7-amine]",< 0.01 µM
3,"c1ccc2sc(-c3nc(Nc4cnn(C5CCOCC5)c4)c4[nH]ncc4n3)nc2c1 [Example 413, 5-(benzo[d]thiazol-2-yl)-N-(1-(tetrahydro-2H-pyran-4-yl)-1H-pyrazol-4-yl)-1H-pyrazolo[4,3-d]pyrimidin-7-amine]",< 0.01 µM
4,"CC(C)n1cc(Nc2nc(-c3ccc4cn[nH]c4c3)nc3cn[nH]c23)cn1 [Example 414, 5-(1H-indazol-6-yl)-N-(1-isopropyl-1H-pyrazol-4-yl)-1H-pyrazolo[4,3-d]pyrimidin-7-amine]",0.01 to 0.1 µM
5,"CC(C)(C)n1cc(Nc2nc(-c3ccc4cn[nH]c4c3)nc3cn[nH]c23)cn1 [Example 415, N-(1-(tert-butyl)-1H-pyrazol-4-yl)-5-(1H-indazol-6-yl)-1H-pyrazolo[4,3-d]pyrimidin-7-amine]",0.01 to 0.1 µM
6,"CC(C)(C#N)n1cc(Nc2nc(-c3ccc4cn[nH]c4c3)nc3cn[nH]c23)cn1 [Example 416, 2-(4-((5-(1H-indazol-6-yl)-1H-pyrazolo[4,3-d]pyrimidin-7-yl)amino)-1H-pyrazol-1-yl)-2-methylpropanenitrile]",0.01 to 0.1 µM
7,"FCCn1cc(Nc2nc(-c3ccc4cn[nH]c4c3)nc3cn[nH]c23)cn1 [Example 417, N-(1-(2-fluoroethyl)-1H-pyrazol-4-yl)-5-(1H-indazol-6-yl)-1H-pyrazolo[4,3-d]pyrimidin-7-amine]",< 0.01 µM
8,"c1nn(C2CC2)cc1Nc1nc(-c2ccc3cn[nH]c3c2)nc2cn[nH]c12 [Example 418, N-(1-cyclopropyl-1H-pyrazol-4-yl)-5-(1H-indazol-6-yl)-1H-pyrazolo[4,3-d]pyrimidin-7-amine]",< 0.01 µM
9,"COCCCn1cc(Nc2nc(-c3ccc4cn[nH]c4c3)nc3cn[nH]c23)cn1 [Example 419, 5-(1H-indazol-6-yl)-N-(1-(3-methoxypropyl)-1H-pyrazol-4-yl)-1H-pyrazolo[4,3-d]pyrimidin-7-amine]",0.01 to 0.1 µM
10,"CC(C)n1cc(Nc2nc(-c3cnn(C)c3)nc3cn[nH]c23)cn1 [Example 420, N-(1-isopropyl-1H-pyrazol-4-yl)-5-(1-methyl-1H-pyrazol-4-yl)-1H-pyrazolo[4,3-d]pyrimidin-7-amine]",0.01 to 0.1 µM
11,"CC(C)n1cc(-c2nc(Nc3ccc(N4CCOCC4)cc3)c3[nH]ncc3n2)cn1 [Example 421, 5-(1-isopropyl-1H-pyrazol-4-yl)-N-(4-morpholinophenyl)-1H-pyrazolo[4,3-d]pyrimidin-7-amine]",0.01 to 0.1 µM
12,"OCCN1CCN(c2ccc(Nc3nc(-c4ccc5cn[nH]c5c4)nc4cn[nH]c34)cc2)CC1 [Example 422, 2-(4-(4-((5-(1H-indazol-6-yl)-1H-pyrazolo[4,3-d]pyrimidin-7-yl)amino)phenyl)piperazin-1-yl)ethan-1-ol]",0.01 to 0.1 µM
13,"CC(C)Cn1cc(Nc2nc(-c3ccc4cn[nH]c4c3)nc3cn[nH]c23)cn1 [Example 423, 5-(1H-indazol-6-yl)-N-(1-isobutyl-1H-pyrazol-4-yl)-1H-pyrazolo[4,3-d]pyrimidin-7-amine]",0.01 to 0.1 µM
14,"COCCCn1cc(Nc2nc(-c3cccc(S(N)(=O)=O)c3)nc3cn[nH]c23)cn1 [Example 424, 3-(7-((1-(3-methoxypropyl)-1H-pyrazol-4-yl)amino)-1H-pyrazolo[4,3-d]pyrimidin-5-yl)benzenesulfonamide]",0.1 to 1 µM
15,"NS(=O)(=O)c1cccc(-c2nc(Nc3cnn(C4CCOCC4)c3)c3[nH]ncc3n2)c1 [Example 425, 3-(7-((1-(tetrahydro-2H-pyran-4-yl)-1H-pyrazol-4-yl)amino)-1H-pyrazolo[4,3-d]pyrimidin-5-yl)benzenesulfonamide]",0.01 to 0.1 µM
16,"CC(C)n1cc(Nc2nc(-c3cccc(S(N)(=O)=O)c3)nc3cn[nH]c23)cn1 [Example 426, 3-(7-((1-isopropyl-1H-pyrazol-4-yl)amino)-1H-pyrazolo[4,3-d]pyrimidin-5-yl)benzenesulfonamide]",0.01 to 0.1 µM
17,"CC(=O)N1CCC(n2cc(Nc3nc(-c4cccc(S(N)(=O)=O)c4)nc4cn[nH]c34)cn2)CC1 [Example 427, 3-(7-((1-(1-acetylpiperidin-4-yl)-1H-pyrazol-4-yl)amino)-1H-pyrazolo[4,3-d]pyrimidin-5-yl)benzenesulfonamide]",0.1 to 1 µM
18,"CC(C)Cn1cc(Nc2nc(-c3cccc(S(N)(=O)=O)c3)nc3cn[nH]c23)cn1 [Example 428, 3-(7-((1-isobutyl-1H-pyrazol-4-yl)amino)-1H-pyrazolo[4,3-d]pyrimidin-5-yl)benzenesulfonamide]",0.01 to 0.1 µM
